Results from ChEMBL document CHEMBL1201862, “PubChem BioAssay data set” (2004).
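Five concentrations, 48 hours, 96-well plates. Abbreviation: GI50, concentration required for 50% inhibition of growth.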 Activity calls are given as the source filed them. Rule as the data show it: active = GI50 up to about 1.1 µM and inactive = higher.

Experiments:
Assay in all cases: NCI anticancer screen, dose series, 48 h
COLO 205 = test system: COLO 205
IGROV-1 = test system: IGROV-1
SK-MEL-28 = test system: SK-MEL-28
XF498 = test system: XF498
HCT-116 = test system: HCT-116
HCC 2998 = test system: HCC 2998
Malme-3M = test system: Malme-3M
RXF 393 = test system: RXF 393
SK-MEL-2 = test system: SK-MEL-2
SNB-19 = test system: SNB-19
786-0 = test system: 786-0
CAKI-1 = test system: CAKI-1
K562 = test system: K562
KM-20L2 = test system: KM-20L2
U-251 = test system: U-251
M14 = test system: M14
HL-60 = test system: HL-60
LXFL 529 = test system: LXFL 529
MOLT-4 = test system: MOLT-4
RXF 631 = test system: RXF 631
M19-MEL = test system: M19-MEL
OVCAR-3 = test system: OVCAR-3
OVCAR-4 = test system: OVCAR-4
UACC-62 = test system: UACC-62
UO-31 = test system: UO-31
NCI-H226 = test system: NCI-H226
A549 = test system: A549
SF-295 = test system: SF-295
TK-10 = test system: TK-10
KM12 = test system: KM12
UACC-257 = test system: UACC-257
SF-539 = test system: SF-539
DMS-273 = test system: DMS-273
EKVX = test system: EKVX
DLD-1 = test system: DLD-1
SR = test system: SR
ACHN = test system: ACHN
SK-OV-3 = test system: SK-OV-3
SW-620 = test system: SW-620
NCI-H460 = test system: NCI-H460
HT-29 = test system: HT-29
NCI-H23 = test system: NCI-H23
SN12C = test system: SN12C
OVCAR-8 = test system: OVCAR-8
HOP-62 = test system: HOP-62
SNB-78 = test system: SNB-78
OVCAR-5 = test system: OVCAR-5
DMS-114 = test system: DMS-114
LOX IMVI = test system: LOX IMVI
CCRF-CEM = test system: CCRF-CEM
HCT-15 = test system: HCT-15
SF-268 = test system: SF-268
NCI-H522 = test system: NCI-H522
HOP-18 = test system: HOP-18
RPMI-8226 = test system: RPMI-8226
SK-MEL-5 = test system: SK-MEL-5
SNB-75 = test system: SNB-75
A498 = test system: A498
HOP-92 = test system: HOP-92

Measured: GI50

Cc1nc(-n2nc(-c3ccccc3)cc2-c2ccccc2)sc1C(=O)/C=C/c1ccc(/C=C/C(=O)c2sc(-n3nc(-c4ccccc4)cc3-c3ccccc3)nc2C)cc1
34.3 µM: HCT-15
inactive: COLO 205 20.2 µM | IGROV-1 15.2 µM | SK-MEL-28 19.5 µM | XF498 21.8 µM | HCT-116 19.8 µM | HCC 2998 20.1 µM | Malme-3M 19.1 µM | RXF 393 22.8 µM | SK-MEL-2 22.1 µM | SNB-19 21.8 µM | 786-0 18.6 µM | CAKI-1 22.2 µM | K562 30.3 µM | KM-20L2 19.1 µM | U-251 19 µM | M14 20 µM | HL-60 32.9 µM | LXFL 529 27.7 µM | MOLT-4 25.1 µM | RXF 631 28.1 µM | M19-MEL 25.9 µM | OVCAR-3 20.8 µM | OVCAR-4 35.2 µM | UACC-62 > 10 µM | UO-31 20.1 µM | NCI-H226 26.8 µM | A549 39 µM | SF-295 23.9 µM | TK-10 34.1 µM | KM12 18.8 µM | UACC-257 21 µM | SF-539 19.2 µM | DMS-273 21.1 µM | EKVX 46.5 µM | DLD-1 20.8 µM | SR 27.2 µM | ACHN 19.9 µM | SK-OV-3 > 100 µM | SW-620 34.8 µM | NCI-H460 29 µM | HT-29 21.6 µM | NCI-H23 19.1 µM | SN12C 19.6 µM | OVCAR-8 32.8 µM | HOP-62 23.6 µM | SNB-78 33.4 µM | OVCAR-5 25.5 µM | DMS-114 36.9 µM | LOX IMVI 20 µM | CCRF-CEM 30.6 µM | SF-268 23.2 µM | NCI-H522 17.8 µM

O=c1[nH]c2c3ccccc3ccc2c2cc3c(cc12)OCO3
71.6 µM: HCT-15
inactive: COLO 205 > 100 µM | IGROV-1 > 100 µM | SK-MEL-28 > 100 µM | XF498 84.1 µM | HCT-116 83.2 µM | HCC 2998 > 100 µM | Malme-3M > 100 µM | RXF 393 28.8 µM | SK-MEL-2 > 100 µM | SNB-19 > 100 µM | 786-0 > 100 µM | HOP-18 2 µM | CAKI-1 95.9 µM | K562 38.5 µM | KM-20L2 > 100 µM | U-251 > 100 µM | M14 > 100 µM | LXFL 529 79.4 µM | MOLT-4 40 µM | RXF 631 > 100 µM | M19-MEL > 100 µM | OVCAR-3 > 100 µM | OVCAR-4 > 100 µM | UACC-62 > 100 µM | UO-31 39.4 µM | RPMI-8226 72.8 µM | NCI-H226 > 100 µM | A549 75.9 µM | SF-295 > 100 µM | TK-10 > 100 µM | KM12 75.5 µM | SK-MEL-5 43.5 µM | UACC-257 > 100 µM | SF-539 > 100 µM | DMS-273 67.1 µM | EKVX 49.2 µM | DLD-1 > 100 µM | ACHN 69.3 µM | SK-OV-3 > 100 µM | SW-620 84.7 µM | NCI-H460 > 100 µM | HT-29 > 100 µM | NCI-H23 > 100 µM | SN12C > 100 µM | OVCAR-8 > 100 µM | HOP-62 89.1 µM | SNB-78 > 100 µM | OVCAR-5 > 100 µM | LOX IMVI > 100 µM | CCRF-CEM 69.8 µM | SNB-75 31.4 µM | SF-268 98.6 µM | NCI-H522 42.5 µM

COc1cc2ccnc(-c3n[nH]c4cc(OC)c(OC)cc34)c2cc1OC
> 100 µM: HCT-15
inactive: COLO 205 > 100 µM | IGROV-1 > 100 µM | SK-MEL-28 > 100 µM | XF498 > 100 µM | HCT-116 > 100 µM | HCC 2998 > 100 µM | Malme-3M > 100 µM | SK-MEL-2 > 100 µM | SNB-19 > 100 µM | 786-0 > 100 µM | HOP-18 > 100 µM | CAKI-1 > 100 µM | K562 > 100 µM | KM-20L2 > 100 µM | U-251 > 100 µM | M14 > 100 µM | HL-60 > 100 µM | LXFL 529 > 100 µM | MOLT-4 > 100 µM | RXF 631 33 µM | M19-MEL > 100 µM | OVCAR-3 > 100 µM | OVCAR-4 > 100 µM | UACC-62 > 100 µM | UO-31 > 100 µM | RPMI-8226 > 100 µM | NCI-H226 > 100 µM | A549 > 100 µM | SF-295 > 100 µM | TK-10 > 100 µM | KM12 > 100 µM | SK-MEL-5 > 100 µM | UACC-257 > 100 µM | SF-539 > 100 µM | DMS-273 > 100 µM | EKVX > 100 µM | A498 > 100 µM | SR > 100 µM | ACHN > 100 µM | SK-OV-3 > 100 µM | SW-620 > 100 µM | NCI-H460 > 100 µM | HT-29 > 100 µM | NCI-H23 > 100 µM | SN12C > 100 µM | HOP-92 > 100 µM | OVCAR-8 > 100 µM | HOP-62 > 100 µM | OVCAR-5 > 100 µM | DMS-114 > 100 µM | LOX IMVI > 100 µM | CCRF-CEM > 100 µM | SNB-75 > 100 µM | SF-268 62.4 µM | NCI-H522 22 µM
